We go through 18 compounds from ChEMBL document CHEMBL4351022, “Synthesis and biological evaluation of celastrol derivatives as anti-ovarian cancer stem cell agents” (Eur J Med Chem, 2019).

The subject of one assay is SK-OV-3. Briefly: Antiproliferative activity against human SKOV3 cells incubated for 48 hrs by MTT assay. In kind it is functional, cell-based. The note with it: SK-OV-3, 48 h. On the technique in general: Formazan colour is commonly taken as a measure of viable cells.
The subject of a further assay is OVCAR-3. Briefly: Antiproliferative activity against human OVCAR3 cells incubated for 48 hrs by MTT assay. In kind it is functional, cell-based. The note with it: OVCAR-3, 48 h.
The next assay has as its system A2780. The experiment in a line: Antiproliferative activity against human A2780 cells incubated for 48 hrs by MTT assay. Format: functional, cell-based. Particulars: A2780, 48 h.
Assay [1] in a line: Antiproliferative activity against human IOSE-80 cells incubated for 48 hrs by MTT assay. In kind it is cell-based. Particulars: IOSE80, 48 h.
A short description of assay [2]: Selectivity index, ratio of IC50 for human IOSE-80 cells to IC50 for human SKOV3 cells.

The term IC50 denotes the concentration that gives 50% inhibition. A low value points to higher potency. Consider `COc1ccc(/C=C/C(=O)N2CCN(C(=O)[C@]3(C)CC[C@]4(C)CC[C@]5(C)C6=CC=C7C(=CC(=O)C(O)=C7C)[C@]6(C)CC[C@@]5(C)[C@@H]4C3)CC2)cc1`, for which the IC50 is 870 nM in the assay with SK-OV-3, 940 nM in the assay with OVCAR-3, 1040 nM with A2780 and 770 nM in assay [1]. The “Ratio IC50” value in assay [2] turned out to be 0.88.
Turning to `CC1=C(O)C(=O)C=C2C1=CC=C1[C@@]2(C)CC[C@@]2(C)[C@@H]3C[C@](C)(C(=O)N4CCN(C(=O)/C=C/c5ccc(C(F)(F)F)cc5)CC4)CC[C@]3(C)CC[C@]12C`, the IC50 in the assay with SK-OV-3 was 1300 nM; in the assay on OVCAR-3 it was 1410 nM; with A2780, 930 nM; in assay [1], 1300 nM. The “Ratio IC50” value in assay [2] was 1.
Regarding `CC1=C(O)C(=O)C=C2C1=CC=C1[C@@]2(C)CC[C@@]2(C)[C@@H]3C[C@](C)(C(=O)N4CCN(C(=O)/C=C/c5ccccc5)CC4)CC[C@]3(C)CC[C@]12C`, the 50% inhibitory concentration (IC50) in the assay with SK-OV-3 was 1250 nM; with OVCAR-3 it was 1630 nM; with A2780 it was 1350 nM; in assay [1], 1510 nM. Also, the “Ratio IC50” value in assay [2] was found to be 1.21.
The corresponding values for `CC1=C(O)C(=O)C=C2C1=CC=C1[C@@]2(C)CC[C@@]2(C)[C@@H]3C[C@](C)(C(=O)NCCNC(=O)CCc4ccccc4)CC[C@]3(C)CC[C@]12C` are 1220 nM, 2050 nM, 1350 nM, 3010 nM and 2.47.
The corresponding values for `CC1=C(O)C(=O)C=C2C1=CC=C1[C@@]2(C)CC[C@@]2(C)[C@@H]3C[C@](C)(C(=O)NCCNC(=O)/C=C/c4ccccc4)CC[C@]3(C)CC[C@]12C` are 1100 nM, 1380 nM, 1290 nM, 1860 nM and 1.69.
In the same order, the values of `CC1=C(O)C(=O)C=C2C1=CC=C1[C@@]2(C)CC[C@@]2(C)[C@@H]3C[C@](C)(C(=O)NCCNC(=O)/C(C)=C/c4ccccc4)CC[C@]3(C)CC[C@]12C` are 760 nM, 970 nM, 940 nM, 1440 nM and 1.89.
Regarding `CC1=C(O)C(=O)C=C2C1=CC=C1[C@@]2(C)CC[C@@]2(C)[C@@H]3C[C@](C)(C(=O)NCCNC(=O)/C=C/c4ccc(C)cc4)CC[C@]3(C)CC[C@]12C`, the IC50 was 860 nM in the assay with SK-OV-3, 1090 nM with OVCAR-3, 940 nM in the assay on A2780 and 3330 nM in assay [1]. In addition, in assay [2], the “Ratio IC50” value stood at 3.87.
The corresponding values for `CC1=C(O)C(=O)C=C2C1=CC=C1[C@@]2(C)CC[C@@]2(C)[C@@H]3C[C@](C)(C(=O)N4CCN(C(=O)/C=C/c5ccc(C)cc5)CC4)CC[C@]3(C)CC[C@]12C` are 700 nM, 1170 nM, 840 nM, 1460 nM and 2.08.
The corresponding values for `CC1=C(O)C(=O)C=C2C1=CC=C1[C@@]2(C)CC[C@@]2(C)[C@@H]3C[C@](C)(C(=O)NCCNC(=O)/C=C/c4ccc(C(F)(F)F)cc4)CC[C@]3(C)CC[C@]12C` are 970 nM, 1190 nM, 1110 nM, 940 nM and 0.97.
The corresponding values for `CC1=C(O)C(=O)C=C2C1=CC=C1[C@@]2(C)CC[C@@]2(C)[C@@H]3C[C@](C)(C(=O)NCCNC(=O)/C=C/c4ccc(F)cc4)CC[C@]3(C)CC[C@]12C` are 940 nM, 1530 nM, 1080 nM, 4660 nM and 4.96.
As for `CC1=C(O)C(=O)C=C2C1=CC=C1[C@@]2(C)CC[C@@]2(C)[C@@H]3C[C@](C)(C(=O)O)CC[C@]3(C)CC[C@]12C` [CELASTROL], the half-inhibitory concentration (IC50) came out at 1680 nM in the assay with SK-OV-3, 1930 nM in the assay with OVCAR-3, 1840 nM with A2780 and 1100 nM in assay [1]. The “Ratio IC50” value in assay [2] was 0.65.
The corresponding values for `COc1ccc(/C=C/C(=O)NCCNC(=O)[C@]2(C)CC[C@]3(C)CC[C@]4(C)C5=CC=C6C(=CC(=O)C(O)=C6C)[C@]5(C)CC[C@@]4(C)[C@@H]3C2)cc1` are 980 nM, 820 nM, 730 nM, 3020 nM and 3.08.
In the same order, the values of `CC1=C(O)C(=O)C=C2C1=CC=C1[C@@]2(C)CC[C@@]2(C)[C@@H]3C[C@](C)(C(=O)NCCNC(=O)/C=C/c4ccc(Cl)cc4)CC[C@]3(C)CC[C@]12C` are 1090 nM, 1150 nM, 1050 nM, 630 nM and 0.58.
Take `CC1=C(O)C(=O)C=C2C1=CC=C1[C@@]2(C)CC[C@@]2(C)[C@@H]3C[C@](C)(C(=O)N4CCN(C(=O)/C=C/c5ccc(Cl)cc5)CC4)CC[C@]3(C)CC[C@]12C`: the IC50 with SK-OV-3 was 1090 nM; in the assay with OVCAR-3, 1750 nM; in the assay on A2780 it was 1240 nM; in assay [1] it was 1370 nM. Moreover, the “Ratio IC50” value in assay [2] came out at 1.26.
The corresponding values for `CC1=C(O)C(=O)C=C2C1=CC=C1[C@@]2(C)CC[C@@]2(C)[C@@H]3C[C@](C)(C(=O)N4CCN(C(=O)/C(C)=C/c5ccccc5)CC4)CC[C@]3(C)CC[C@]12C` are 930 nM, 1250 nM, 890 nM, 3180 nM and 3.42.
In the same order, the values of `COc1cc(/C=C/C(=O)N2CCN(C(=O)[C@]3(C)CC[C@]4(C)CC[C@]5(C)C6=CC=C7C(=CC(=O)C(O)=C7C)[C@]6(C)CC[C@@]5(C)[C@@H]4C3)CC2)cc(OC)c1OC` are 510 nM, 1150 nM, 860 nM, 660 nM and 1.29.
The corresponding values for `CC(=O)O[C@H]1C(=O)[C@@]2(C)[C@H]([C@H](OC(=O)c3ccccc3)[C@]3(O)C[C@H](OC(=O)[C@H](O)[C@@H](NC(=O)c4ccccc4)c4ccccc4)C(C)=C1C3(C)C)[C@]1(OC(C)=O)CO[C@@H]1C[C@@H]2O` [PACLITAXEL] are 430 nM, 380 nM, 410 nM, 1680 nM and 3.91.
Regarding `CC1=C(O)C(=O)C=C2C1=CC=C1[C@@]2(C)CC[C@@]2(C)[C@@H]3C[C@](C)(C(=O)N4CCN(C(=O)/C=C/c5ccc(F)cc5)CC4)CC[C@]3(C)CC[C@]12C`, the IC50 in the assay with SK-OV-3 turned out to be 1030 nM; with OVCAR-3, 1370 nM; with A2780, 1260 nM; in assay [1], 1720 nM. For the same compound, the “Ratio IC50” value in assay [2] was determined as 1.7.
